In ChEMBL document CHEMBL1149535, “2-Arylimino-5,6-dihydro-4H-1,3-thiazines as a new class of cannabinoid receptor agonists. Part 2: orally bioavailable compounds” (Bioorg Med Chem Lett, 2007):

target: Cannabinoid receptor 2 (Homo sapiens, UniProt P34972); experiment: Binding affinity to human CB2 receptor
Sequence (P34972 whole entry): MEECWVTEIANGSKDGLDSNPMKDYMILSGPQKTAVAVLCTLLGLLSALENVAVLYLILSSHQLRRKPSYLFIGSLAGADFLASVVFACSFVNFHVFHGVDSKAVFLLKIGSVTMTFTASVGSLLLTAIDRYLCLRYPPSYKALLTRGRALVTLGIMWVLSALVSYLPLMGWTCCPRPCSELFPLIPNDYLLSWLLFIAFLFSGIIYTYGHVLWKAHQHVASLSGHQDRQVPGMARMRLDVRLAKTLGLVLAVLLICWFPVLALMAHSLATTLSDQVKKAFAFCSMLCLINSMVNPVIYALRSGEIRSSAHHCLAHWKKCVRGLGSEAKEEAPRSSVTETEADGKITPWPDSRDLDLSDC

Compared with `COc1ccc(/N=C2\SCC3(CCCCC3)CN2C(=S)SC)cc1`, `CCc1ccc(/N=C2\SCC3(CCCCC3)CN2C(=S)SC)cc1` is 3.2-fold lower in Ki: 0.0038 µM for the first, 0.0012 µM for the second.

Going from `CCCc1ccc(/N=C2\SCC3(CCCCC3)CN2C(=S)SC)cc1` to `CSC(=S)N1CC2(CCCCC2)CS/C1=N\c1ccc(C(C)C)cc1`, the Ki rises from 0.007 µM to 0.023 µM (3.3-fold). The first binds more tightly here.

Going from `CSC(=S)N1CC2(CCCCC2)CS/C1=N\c1ccc(C(F)(F)F)cc1` to `CSC(=S)N1CC2(CCCCC2)CS/C1=N\c1ccc(C#N)cc1`, the Ki falls from 0.018 µM to 0.0023 µM (7.8-fold). The second binds more tightly here.

Going from `CSC(=S)N1CC2(CCCCC2)CS/C1=N\c1ccc2c(c1)CCCC2` to `CSC(=S)N1CC2(CCCCC2)CS/C1=N\c1cccc2c1CCC2`, the Ki falls from 0.024 µM to 0.005 µM (4.8-fold).

Compared with `CCOc1ccccc1/N=C1\SCC2(CCCCC2)CN1C(=S)SC`, `CSC(=S)N1CC2(CCCCC2)CS/C1=N\c1ccccc1OC(F)(F)F` is 1.9-fold higher in Ki: 0.0063 µM for the first, 0.012 µM for the second. The first binds more tightly here.

`CSC(=S)N1CC2(CCCCC2)CS/C1=N\c1ccccc1C(F)(F)F` and `CSC(=S)N1CC2(CCCCC2)CS/C1=N\c1cccc(C)c1C` are within 1.5-fold of each other in Ki: 0.0011 µM for the first, 0.001 µM for the second.

`CSC(=S)N1CC2(CCCCC2)CS/C1=N\c1cccc2nonc12` and `CSC(=S)N1CC2(CCCCC2)CS/C1=N\c1cccc2c1CCCN2C` are within 1.5-fold of each other in Ki: 0.0009 µM for the first, 0.0011 µM for the second.

system: Mus musculus; experiment: Analgesic activity against formalin-induced acute pain in iv dosed mouse; type: functional

Work on `CCCCCc1cc(O)c2c(c1)OC(C)(C)[C@@H]1CCC(C)=C[C@@H]21` [DRONABINOL] yielded an ED50 of 0.4 mg/kg.

system: Mus musculus; experiment: Analgesic activity against formalin-induced inflammatory pain in iv dosed mouse; type: functional

For `CCCCCc1cc(O)c2c(c1)OC(C)(C)[C@@H]1CCC(C)=C[C@@H]21` [DRONABINOL], the ED50 was 0.3 mg/kg.

target: Cannabinoid receptor 1 (Homo sapiens, UniProt P21554); experiment: Binding affinity to human CB1 receptor
Sequence (P21554 whole entry): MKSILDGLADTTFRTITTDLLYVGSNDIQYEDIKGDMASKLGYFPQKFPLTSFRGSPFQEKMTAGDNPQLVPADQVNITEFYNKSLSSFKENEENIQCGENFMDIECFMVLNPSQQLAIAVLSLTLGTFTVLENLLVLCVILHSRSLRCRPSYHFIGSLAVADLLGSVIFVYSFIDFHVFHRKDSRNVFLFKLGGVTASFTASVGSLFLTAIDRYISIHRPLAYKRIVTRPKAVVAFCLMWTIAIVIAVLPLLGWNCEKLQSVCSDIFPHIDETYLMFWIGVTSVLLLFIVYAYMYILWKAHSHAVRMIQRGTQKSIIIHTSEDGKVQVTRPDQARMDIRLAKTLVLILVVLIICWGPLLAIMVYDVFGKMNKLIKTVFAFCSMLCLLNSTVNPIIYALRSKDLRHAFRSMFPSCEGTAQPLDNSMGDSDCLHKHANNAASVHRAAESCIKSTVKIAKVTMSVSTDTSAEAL

Compared with `COc1ccc(/N=C2\SCC3(CCCCC3)CN2C(=S)SC)cc1`, `CCc1ccc(/N=C2\SCC3(CCCCC3)CN2C(=S)SC)cc1` is 7.1-fold lower in Ki: 0.671 µM for the first, 0.095 µM for the second. The second binds more tightly here.

Going from `CCCc1ccc(/N=C2\SCC3(CCCCC3)CN2C(=S)SC)cc1` to `CSC(=S)N1CC2(CCCCC2)CS/C1=N\c1ccc(C(C)C)cc1`, the Ki rises from 0.514 µM to 1.26 µM (2.5-fold). The first binds more tightly here.

Going from `CSC(=S)N1CC2(CCCCC2)CS/C1=N\c1ccc(C(F)(F)F)cc1` to `CSC(=S)N1CC2(CCCCC2)CS/C1=N\c1ccc(C#N)cc1`, the Ki falls from 1.73 µM to 0.173 µM (10-fold). The second binds more tightly here.

First: CSC(=S)N1CC2(CCCCC2)CS/C1=N\c1ccc2c(c1)CCCC2
Second: CSC(=S)N1CC2(CCCCC2)CS/C1=N\c1cccc2c1CCC2
The Ki of the first is 1.6-fold higher: 0.396 µM for the first, 0.243 µM for the second. The second binds more tightly here.

Compared with `CCOc1ccccc1/N=C1\SCC2(CCCCC2)CN1C(=S)SC`, `CSC(=S)N1CC2(CCCCC2)CS/C1=N\c1ccccc1OC(F)(F)F` is 2-fold higher in Ki: 0.358 µM for the first, 0.711 µM for the second.

Going from `CSC(=S)N1CC2(CCCCC2)CS/C1=N\c1ccccc1C(F)(F)F` to `CSC(=S)N1CC2(CCCCC2)CS/C1=N\c1cccc(C)c1C`, the Ki falls from 0.418 µM to 0.114 µM (3.7-fold). The second binds more tightly here.

Compared with `CSC(=S)N1CC2(CCCCC2)CS/C1=N\c1cccc2nonc12`, `CSC(=S)N1CC2(CCCCC2)CS/C1=N\c1cccc2c1CCCN2C` is 2.9-fold lower in Ki: 0.246 µM for the first, 0.085 µM for the second.
